# Assay results as given in BigSolDB 2.1.
smiles,measurement,setting,value
O=P(NC1CCCCC1)(Oc1ccccc1)Oc1ccccc1,solubility (mole fraction),"in THF, 293.15 K",0.168
same,solubility (mole fraction),"in THF, 298.15 K",0.192
same,solubility (mole fraction),"in THF, 303.15 K",0.229
same,solubility (mole fraction),"in THF, 308.15 K",0.269
same,solubility (mole fraction),"in THF, 313.15 K",0.318
same,solubility (mole fraction),"in THF, 318.15 K",0.372
same,solubility (mole fraction),"in THF, 323.15 K",0.419
same,solubility (mole fraction),"in THF, 328.15 K",0.504
same,solubility (mole fraction),"in THF, 333.15 K",0.567
same,solubility (mole fraction),"in acetone, 293.15 K",0.0439
same,solubility (mole fraction),"in acetone, 298.15 K",0.0611
same,solubility (mole fraction),"in acetone, 303.15 K",0.0796
same,solubility (mole fraction),"in acetone, 308.15 K",0.109
same,solubility (mole fraction),"in acetone, 313.15 K",0.134
same,solubility (mole fraction),"in acetone, 318.15 K",0.187
same,solubility (mole fraction),"in acetone, 323.15 K",0.229
same,solubility (mole fraction),"in acetone, 328.15 K",0.271
same,solubility (mole fraction),"in acetonitrile, 293.15 K",0.0115
same,solubility (mole fraction),"in acetonitrile, 298.15 K",0.0171
same,solubility (mole fraction),"in acetonitrile, 303.15 K",0.0248
same,solubility (mole fraction),"in acetonitrile, 308.15 K",0.0371
same,solubility (mole fraction),"in acetonitrile, 313.15 K",0.0521
same,solubility (mole fraction),"in acetonitrile, 318.15 K",0.0759
same,solubility (mole fraction),"in acetonitrile, 323.15 K",0.106
same,solubility (mole fraction),"in acetonitrile, 328.15 K",0.148
same,solubility (mole fraction),"in acetonitrile, 333.15 K",0.191
same,solubility (mole fraction),"in acetonitrile, 338.15 K",0.263
same,solubility (mole fraction),"in acetonitrile, 343.15 K",0.358
same,solubility (mole fraction),"in benzene, 293.15 K",0.077
same,solubility (mole fraction),"in benzene, 298.15 K",0.0991
same,solubility (mole fraction),"in benzene, 303.15 K",0.127
same,solubility (mole fraction),"in benzene, 308.15 K",0.159
same,solubility (mole fraction),"in benzene, 313.15 K",0.195
same,solubility (mole fraction),"in benzene, 318.15 K",0.25
same,solubility (mole fraction),"in benzene, 323.15 K",0.292
same,solubility (mole fraction),"in benzene, 328.15 K",0.374
same,solubility (mole fraction),"in benzene, 333.15 K",0.457
same,solubility (mole fraction),"in benzene, 338.15 K",0.55
same,solubility (mole fraction),"in benzene, 343.15 K",0.636
same,solubility (mole fraction),"in chloroform, 293.15 K",0.207
same,solubility (mole fraction),"in chloroform, 298.15 K",0.233
same,solubility (mole fraction),"in chloroform, 303.15 K",0.266
same,solubility (mole fraction),"in chloroform, 308.15 K",0.313
same,solubility (mole fraction),"in chloroform, 313.15 K",0.352
same,solubility (mole fraction),"in chloroform, 318.15 K",0.4
same,solubility (mole fraction),"in chloroform, 323.15 K",0.459
same,solubility (mole fraction),"in chloroform, 328.15 K",0.518
same,solubility (mole fraction),"in dichloromethane, 278.15 K",0.0884
same,solubility (mole fraction),"in dichloromethane, 283.15 K",0.102
same,solubility (mole fraction),"in dichloromethane, 288.15 K",0.129
same,solubility (mole fraction),"in dichloromethane, 293.15 K",0.155
same,solubility (mole fraction),"in dichloromethane, 298.15 K",0.18
same,solubility (mole fraction),"in dichloromethane, 303.15 K",0.216
same,solubility (mole fraction),"in dichloromethane, 308.15 K",0.26
same,solubility (mole fraction),"in ethanol, 293.15 K",0.0358
same,solubility (mole fraction),"in ethanol, 298.15 K",0.049
same,solubility (mole fraction),"in ethanol, 303.15 K",0.0638
same,solubility (mole fraction),"in ethanol, 308.15 K",0.0867
same,solubility (mole fraction),"in ethanol, 313.15 K",0.116
same,solubility (mole fraction),"in ethanol, 318.15 K",0.153
same,solubility (mole fraction),"in ethanol, 323.15 K",0.196
same,solubility (mole fraction),"in ethanol, 328.15 K",0.253
same,solubility (mole fraction),"in ethanol, 333.15 K",0.317
same,solubility (mole fraction),"in ethanol, 338.15 K",0.406
same,solubility (mole fraction),"in ethyl acetate, 293.15 K",0.0305
same,solubility (mole fraction),"in ethyl acetate, 298.15 K",0.0395
same,solubility (mole fraction),"in ethyl acetate, 303.15 K",0.0549
same,solubility (mole fraction),"in ethyl acetate, 308.15 K",0.0721
same,solubility (mole fraction),"in ethyl acetate, 313.15 K",0.0946
same,solubility (mole fraction),"in ethyl acetate, 318.15 K",0.128
same,solubility (mole fraction),"in ethyl acetate, 323.15 K",0.166
same,solubility (mole fraction),"in ethyl acetate, 328.15 K",0.211
same,solubility (mole fraction),"in ethyl acetate, 333.15 K",0.264
same,solubility (mole fraction),"in ethyl acetate, 338.15 K",0.341
same,solubility (mole fraction),"in ethyl acetate, 343.15 K",0.426
same,solubility (mole fraction),"in methanol, 293.15 K",0.0411
same,solubility (mole fraction),"in methanol, 298.15 K",0.0533
same,solubility (mole fraction),"in methanol, 303.15 K",0.0702
same,solubility (mole fraction),"in methanol, 308.15 K",0.0955
same,solubility (mole fraction),"in methanol, 313.15 K",0.121
same,solubility (mole fraction),"in methanol, 318.15 K",0.161
same,solubility (mole fraction),"in methanol, 323.15 K",0.212
same,solubility (mole fraction),"in methanol, 328.15 K",0.281
same,solubility (mole fraction),"in methanol, 333.15 K",0.356
same,solubility (mole fraction),"in toluene, 293.15 K",0.0539
same,solubility (mole fraction),"in toluene, 298.15 K",0.0688
same,solubility (mole fraction),"in toluene, 303.15 K",0.0911
same,solubility (mole fraction),"in toluene, 313.15 K",0.154
same,solubility (mole fraction),"in toluene, 323.15 K",0.259
same,solubility (mole fraction),"in toluene, 333.15 K",0.409
same,solubility (mole fraction),"in toluene, 343.15 K",0.611
